Reference: PMC6274005, “Interaction of Di-2-pyridylketone 2-pyridine Carboxylic Acid Hydrazone and Its Copper Complex with BSA: Effect on Antitumor Activity as Revealed by Spectroscopic Studies” (Molecules, 2016)

Experiments:
[1] = target: T1, BSA (Bos taurus, UniProt P02769); test: Synchronous fluorescence spectra of BSA (Δλ = 60 nm); format: binding, bovine; conditions: CBSA = 10.0 μM, 288 K
Protocol: The bathochromic (or […]) shift noticed during fluorescence titration of BSA with the reagents, implied potent changes in the environment of Trp residues. To confirm these environmental changes, synchronous fluorescence spectra were recorded, because this technique yields information pertaining to the change in the polarity of the microregion near fluorophore molecules. By using different D-value (Δλ) between the excitation and emission wavelength, fluorescence contributors from different aromatic amino acids in the protein can be identified. When Δλ is stabilized at 60 nm, synchronous fluorescence spectroscopy provides the characteristic information specific to Trp residues. […] Although DPPCAH and DPPCAH-Cu could bind BSA, they induced different effects in BSA.
For the fluorescence spectra, the excitation wavelength was set at 280 nm and the emission spectra were recorded in the range of 300 to 450 nm. Both excitation and emission slit widths were adjusted to 5 nm. […] Fluorescence emission spectra were then measured on a RF-5301 Spectrofluorophotometer (Shimadzu Scientific Instruments, Kyoto, Japan) at three different temperatures (288, 303, and 310 K). In order to calculate the peak area, the integration of spectra was done in the range of 300 to 450 nm. Synchronous fluorescence spectra were recorded by simultaneously scanning the excitation and emission monochromators, in which a constant wavelength interval was maintained between them. The wavelength interval (Δλ = λem − λex) was fixed individually at 60 nm, at which characteristic information of pertaining to Trp residues was obtained.

[2] = target: T1, BSA; test: Circular dichroism spectra of BSA, secondary structure simulated with K2D2; parameters: species or system bovine; conditions: molar ratio drug/protein = 2; CBSA = 15 μM; K2D2 simulation of CD data
Protocol: A direct calculation of secondary structures using experimental data was employed, but owing to the larger errors, the K2D2 software was used to simulate the experimental data of CD in the present study. The simulated curves are represented in the Supplementary Materials (Figure S1). In the absence of DPPCAH, the α-helix and β-sheet of BSA were 52% and 8.29% respectively.
BSA CD spectra in the range of 190–250 nm were recorded on a Chirascan (Applied Photophysics Ltd., Surrey, UK) with a 1.0 cm quartz cell in nitrogen atmosphere. BSA CD measurements in the presence and absence of DPPCAH (or DPPCAH-Cu) were performed with a scan rate of 50 nm/min. The A stock solution of 1.5 × 10^−5 M BSA was prepared in PBS. A 10 mM stock solution of DPPCAH was prepared in DMSO and the stock solution was diluted to 1.5 mM with water for measurements. Similarly, a solution of DPPCAH-Cu was prepared by mixing the DPPCAH solution with higher concentration of CuCl2 in water. The BSA concentration was held constant, while the DPPCAH concentration was varied (0, 1.5, 3.0 × 10^−5 M). The final concentration of DMSO in the measurements was less 0.5%. The buffer solution was chosen as the blank, and was manually subtracted from each spectrum during scanning. Each sample was scanned three times and the average was recorded for the CD spectrum.

[3] = tested on: HepG2 cells; parameters: method as in PMID 26398524; conditions: cited from earlier work
[4] = tested on: HepG2 cells; test: MTT cytotoxicity assay in the absence or presence of BSA; format: cell-based; conditions: agent-BSA 1:1, medium without FCS, 8 h incubation
Protocol: It has been reported that HSA could enhance the anti-proliferative activity of Dp44mT [13]. Thus, we examined the effect of BSA on both DPPCAH- and DPPCAH-Cu-mediated inhibition of HepG2 cells in which BSA was the main protein source in the cell culture.
Figure 1 Inhibition of proliferation of HepG2 cells by DPPCAH and DPPCAH-Cu in the absence or presence of BSA. Dpp = DPPCAH; * p < 0.01 (t-test).
A stock solution of DPPCAH (10 mM) was prepared in 80% DMSO, and was diluted to the required concentration with culture medium when used. The DPPCAH-Cu was prepared by mixing highly concentrated copper chloride with DPPCAH based on 1:1 molar ratio, and diluted to the required concentration with water. BSA was dissolved in PBS and was sterilized by filter sterilization method. HepG2 cells were cultured in RPMI-1640 medium supplemented with 10% fetal calf serum (FCS) and antibiotics. The cells collected in the exponential-phase (5 × 10^3 /mL) were seeded equivalently into a 96-well plate, followed by 6 h of incubation. […] The plate was read using a microplate reader (MK3; Thermo Fisher Scientific (Shanghai) Co. LTD, Shanghai, China) at 570 nm and the measurement of absorbance represented an estimate of the number of viable cells. Percent growth inhibition was defined as percent absorbance inhibition within appropriate absorbance in each cell line. […]

T1 sequence (P02769 25-607): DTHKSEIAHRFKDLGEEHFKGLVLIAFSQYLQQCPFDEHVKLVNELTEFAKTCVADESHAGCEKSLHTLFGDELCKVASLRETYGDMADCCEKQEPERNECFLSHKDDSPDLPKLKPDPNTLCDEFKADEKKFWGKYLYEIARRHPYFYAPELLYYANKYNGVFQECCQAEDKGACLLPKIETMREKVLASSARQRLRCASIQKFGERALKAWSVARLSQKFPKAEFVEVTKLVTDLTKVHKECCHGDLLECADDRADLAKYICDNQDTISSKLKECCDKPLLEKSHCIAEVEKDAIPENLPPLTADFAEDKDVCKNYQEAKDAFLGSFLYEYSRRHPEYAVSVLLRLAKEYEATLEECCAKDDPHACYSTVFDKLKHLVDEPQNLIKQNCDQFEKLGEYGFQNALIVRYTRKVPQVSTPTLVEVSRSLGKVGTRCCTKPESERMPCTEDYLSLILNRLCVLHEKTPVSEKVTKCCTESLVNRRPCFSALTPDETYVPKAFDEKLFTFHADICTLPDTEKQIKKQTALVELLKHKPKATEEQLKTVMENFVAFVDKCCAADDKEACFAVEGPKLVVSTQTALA

| Compound | decrease of fluorescence intensity of Trp residue [1] [%] | shift of maximum emission wavelength of Trp in synchronous fluorescence [1] | decrease in α-helix of BSA [2] [%] | increase in β-sheet of BSA [2] [%] | antitumor activity compared with DPPCAH [3] | effect of BSA on growth inhibition of HepG2 cells mediated by the agent [4] | IC50 ([3]; read-out: IC50, growth inhibition of HepG2 cells) [µM] |
| --- | --- | --- | --- | --- | --- | --- | --- |
| Copper complex of di-2-pyridylketone 2-pyridinecarboxylic acid hydrazone [DPPCAH-Cu] | 50 | blue shift | 3.5 | 1.45 | significantly enhanced the antitumor activity |  |  |
| O=C(NN=C(c1ccccn1)c1ccccn1)c1ccccn1 [DPPCAH, di-2-pyridylketone-2-pyridine carboxylic acid hydrazone] | 55 | significant red shift |  |  |  | attenuated the growth inhibition | 4.6 ± 0.2 |
